Common to all, as to assay: NCI tumour cell line growth inhibition, 48 h
In test [1] the test system is NCI-H23 lung.
The test system of test [2] is 786-0 renal.
Test [3] deals with SNB-19 CNS.
Test [4] deals with RPMI-8226 leukemia.
Test [5] has as its system CAKI-1 renal.
Test [6] deals with SN12C renal.
The subject of test [7] is NCI-H522 lung.
Test [8] relates to M14 melanoma.
The test system of test [9] is MOLT-4 leukemia.
The test system of test [10] is HOP-92 NSCLC.

Values joined by “and” are separate entries in the source; they are usually repeats but may differ in a detail not shown here. Equal values may be shown once.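 1) Cells in 96-well plates. 2) Compound, 48 h, 5 concentrations. 3) Linear interpolation between surrounding doses. 4) Unreached endpoint = highest concentration. GI50 is the concentration that inhibits growth by half. Definition used: TGI = concentration required for complete inhibition of growth.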

Take `Nc1ccn([C@@H]2S[C@H](CO)[C@@H](O)[C@@H]2F)c(=O)n1`: the GI50 was 0.0586 µM in test [1]; 0.109 µM in test [2]; 0.0581 µM in test [3]; 2.65 µM in [4]; 0.0412 µM in test [5]; 0.0405 µM in test [6]. Also, the GI50 in [7] is 8.83 µM; in test [8], 0.0616 µM; in test [9], 0.0304 µM; in test [10], 0.278 µM. The TGI in [1] is above 49 µM; in test [3], above 100 µM; in test [4] it was above 100 µM; in [5], above 100 µM; in test [6], above 100 µM; in test [7], above 100 µM. Further, the TGI in test [8] was 0.842 µM; in test [9], above 100 µM; in test [10], above 100 µM.
For the compound `COc1cc2c(cc1OC)C(SC)C(=O)N(Cc1cccc(OC)c1OC)CC2` (configuration not stated), the TGI in test [1] was 18.2 µM; in test [2], above 100 µM; in [3], above 100 µM; in test [4], 47.5 µM; in [5], above 88.5 µM; in [6] it was above 100 µM. The TGI in test [7] was 3.07 µM; in [8] it was 26.5 µM; in test [9] it was 45.5 µM; in [10], 16.9 µM.
`O=C(Nc1ccc(Cl)c(Cl)c1)C1C(=O)N(c2ccc(Cl)c(Cl)c2)C(=O)/C1=N\O` (configuration not stated): the TGI in test [1], in test [2], in test [3], in test [4], in test [5] and in test [6] was above 100 µM in each case. For the same compound, the TGI was above 100 µM in test [7], 53.8 µM in [8], above 100 µM in test [9] and above 100 µM in [10].
With `C=CC[PH+](c1ccccc1)c1ccccc1.C=CC[PH+](c1ccccc1)c1ccccc1.[Pt+2].[S-]c1ncccn1.[S-]c1ncccn1`, the GI50 was 17.9 µM in test [1]; 18.8 µM in test [2]; 58.9 µM in [3]; 3.16 µM in test [4]; 7.66 µM in test [5]; 13.5 µM in [6]. The GI50 in test [7] was 2.17 µM; in test [8], 5.67 µM; in test [9], 3.26 µM; in test [10] it was 2.7 µM. In addition, the TGI was 59 µM in [1]; 48.1 µM in [2]; above 100 µM in [3]; 17.4 µM in [4]; 29.2 µM in test [5]; 48.6 µM in [6]. The TGI is 5.78 µM in test [7], 31.9 µM in [8], above 100 µM in test [9] and 19.7 µM in [10].
For the compound `CCc1ccc(C2=NN(c3ccc(S(C)(=O)=O)cc3)C(=O)CC2)cc1`, the GI50 in test [1] was 1.85 µM; in test [2], 4.39 µM; in [3], 8.82 µM; in test [4] it was 3.97 µM; in [5], 1.65 µM; in [6], 7.34 µM. Besides, the GI50 in test [7] was 0.339 µM; in [8], 0.639 µM; in test [9], 1.53 µM; in test [10], 1.86 µM. Further, the TGI in test [1] is above 24.3 µM; in test [2], 54.4 µM; in test [3] it was above 100 µM; in test [4] it was above 57.6 µM; in test [5] it was above 28.7 µM; in test [6], above 100 µM. Moreover, the TGI was 8.37 µM in test [7], above 100 µM in test [8], 17.5 µM in test [9] and 23.7 µM in [10].
With `CCOc1ccc(/C=C2/C(=O)N=C(N)N=C2N)cc1OCC`, the TGI in test [1], in [2], in [3], in test [4], in test [5] and in [6] was above 100 µM in each case. Also, the TGI in test [7], in test [8], in test [9] and in test [10] was above 100 µM throughout.
For the compound `Oc1c(I)cc(Cl)c2cccnc12`, the GI50 was 3.74 µM and 8.04 µM in [1]; 3.28 µM and 3.86 µM in test [2]; 3.71 µM and 9.32 µM in test [3]; 3.43 µM and 2.86 µM in [4]; 2.38 µM and 21.4 µM in [5]; 3.27 µM and 4.82 µM in [6]. For the same compound, the GI50 in test [7] was 3.93 µM and 14.5 µM; in [8], 2.08 µM; in [9] it was 3.37 µM and 3.12 µM. In addition, the TGI in test [1] is 31.4 µM and > 100 µM; in test [2], 12.6 µM and 17.6 µM; in [3], above 100 µM; in [4], 27.2 µM and 10.8 µM; in test [6], > 100 µM and 26.3 µM; in test [7] it was 30.2 µM and 36.4 µM. The TGI in test [8] was 4.37 µM; in test [9], 9.93 µM and 21.4 µM; in test [10], 17.9 µM and 50.3 µM.
With `C=CC(C)(O)CCC1C(=C)C(O)CC2C(C)(C)CCCC12C` (configuration not stated), the TGI in test [1] amounted to 38.3 µM; in test [2], 32.8 µM; in test [3] it was 35.6 µM; in test [4] it was 58.2 µM; in test [5] it was 68.2 µM; in test [6], 33 µM. Further, the TGI turned out to be 34.1 µM in test [7], 30 µM in [8], 31.2 µM in test [9] and 34 µM in test [10].
Turning to `Cc1ccc(C(=O)N2C/C(=C/c3ccccc3)C(=O)/C(=C/c3ccccc3)C2)cc1`, the GI50 in [1] is 8.86 µM; in [2], 3.52 µM; in [3] it was 9.51 µM; in [4], 0.131 µM; in test [5] it was above 57.5 µM; in test [6], 7.34 µM. Further, the GI50 in test [7] is 11.6 µM; in test [8], 3.85 µM; in [9], 4.98 µM; in [10], 10.7 µM. Further, the TGI in test [1] is above 100 µM; in test [2] it was 15.2 µM; in [3] it was above 100 µM; in test [4], 0.971 µM; in test [5] it was above 100 µM; in test [6] it was above 100 µM. The TGI in test [7] was above 56 µM; in test [8], above 92.1 µM; in test [9], above 100 µM; in [10] it was above 100 µM.
